Source: US20250230193A1, “CYCLIC COMPOUND HAVING SELECTIVE KRAS INHIBITORY EFFECT ON HRAS AND NRAS” (CHUGAI SEIYAKU KABUSHIKI KAISHA, priority 2022, published 2025)

Assays:
[1] = molecular target: GDP-bound NRAS wild-type protein (Homo sapiens, UniProt P01111); experiment: Binding to NRAS by surface plasmon resonance (SPR), Single Cycle Kinetics; details: KD ratio, GDP-bound NRAS wild-type vs GDP-bound KRAS wild-type, SPR
[2] = molecular target: GDP-bound HRAS wild-type protein (Homo sapiens, UniProt P01112); experiment: Binding to HRAS by surface plasmon resonance (SPR), Single Cycle Kinetics; details: KD ratio, GDP-bound HRAS wild-type vs GDP-bound KRAS wild-type, SPR
GDP-bound HRAS wild-type protein, sequence (P01112 whole entry): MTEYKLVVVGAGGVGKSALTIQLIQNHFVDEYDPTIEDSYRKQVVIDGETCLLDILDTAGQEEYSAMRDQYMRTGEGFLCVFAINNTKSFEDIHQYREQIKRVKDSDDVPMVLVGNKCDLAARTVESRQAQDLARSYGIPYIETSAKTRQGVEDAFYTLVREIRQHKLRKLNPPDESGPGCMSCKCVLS

GDP-bound NRAS wild-type protein, sequence (P01111 whole entry): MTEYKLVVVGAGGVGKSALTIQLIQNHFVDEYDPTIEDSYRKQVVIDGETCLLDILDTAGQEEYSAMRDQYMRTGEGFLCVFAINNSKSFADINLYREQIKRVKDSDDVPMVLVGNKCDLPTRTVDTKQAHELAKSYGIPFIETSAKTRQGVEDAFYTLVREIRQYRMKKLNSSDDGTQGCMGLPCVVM

| SMILES | NRAS/KRAS (ratio of KD value for NRAS to KD value for KRAS) [1] | HRAS/KRAS (ratio of KD value for HRAS to KD value for KRAS) [2] |
| --- | --- | --- |
| CCO[C@@H]1C[C@H]2C(=O)NC3(CC(C)(C)C3)C(=O)N(C)[C@@H](C(CC)CC)C(=O)N3CCC[C@@H]3CC(=O)N(C)[C@@H](CC3CC3)C(=O)N[C@@H]([C@@H](C)CC)C(=O)N(C)CC(=O)N(C)[C@H]3C/C=C\CCN(C3=O)[C@@H](Cc3ccc(C(F)(F)F)cc3)C(=O)N(C)CC(=O)N[C@@H](CCc3cc(F)c(C(F)(F)F)c(F)c3)C(=O)N2C1 [PP1610] | A (a compound having 10 or more and less than 20 is denoted as A) | A (a compound having 10 or more and less than 20 is denoted as A) |
| CCO[C@@H]1C[C@H]2C(=O)NC3(CC(C)(C)C3)C(=O)N(C)[C@@H](C3CCCC3)C(=O)N3CCC[C@@H]3CC(=O)N(C)[C@@H](CC3CC3)C(=O)N[C@@H]([C@@H](C)CC)C(=O)N(C)CC(=O)N(C)[C@H]3C/C=C\CCN(C3=O)[C@@H](Cc3ccc(C(F)(F)F)cc3)C(=O)N(C)CC(=O)N[C@@H](CCc3cc(F)c(C(F)(F)F)c(F)c3)C(=O)N2C1 [PP1611] | B (a compound having 3 or more and less than 10 is denoted as B) | B (a compound having 3 or more and less than 10 is denoted as B) |
| CCO[C@@H]1C[C@H]2C(=O)NC3(CCC3)C(=O)N(C)[C@@H](C(CC)CC)C(=O)N3CCC[C@@H]3CC(=O)N(C)[C@@H](CC3CC3)C(=O)N[C@@H]([C@@H](C)CC)C(=O)N(C)CC(=O)N(C)[C@H]3C/C=C\CCN(C3=O)[C@@H](Cc3ccc(C(F)(F)F)cc3)C(=O)N(C)CC(=O)N[C@@H](CCc3cc(F)c(C(F)(F)F)c(F)c3)C(=O)N2C1 [PP1612] | B (a compound having 3 or more and less than 10 is denoted as B) | B (a compound having 3 or more and less than 10 is denoted as B) |
| CCO[C@@H]1C[C@H]2C(=O)NC3(CCC3)C(=O)N(C)[C@@H](C3CCCC3)C(=O)N3CCC[C@@H]3CC(=O)N(C)[C@@H](CC3CC3)C(=O)N[C@@H]([C@@H](C)CC)C(=O)N(C)CC(=O)N(C)[C@H]3C/C=C\CCN(C3=O)[C@@H](Cc3ccc(C(F)(F)F)cc3)C(=O)N(C)CC(=O)N[C@@H](CCc3cc(F)c(C(F)(F)F)c(F)c3)C(=O)N2C1 [PP1613] | B (a compound having 3 or more and less than 10 is denoted as B) | B (a compound having 3 or more and less than 10 is denoted as B) |
| CCO[C@@H]1C[C@H]2C(=O)NC3(CC(F)(F)C3)C(=O)N(C)[C@@H](C(CC)CC)C(=O)N3CCC[C@@H]3CC(=O)N(C)[C@@H](CC3CC3)C(=O)N[C@@H]([C@@H](C)CC)C(=O)N(C)CC(=O)N(C)[C@H]3C/C=C\CCN(C3=O)[C@@H](Cc3ccc(C(F)(F)F)cc3)C(=O)N(C)CC(=O)N[C@@H](CCc3cc(F)c(C(F)(F)F)c(F)c3)C(=O)N2C1 [PP1614] | A (a compound having 10 or more and less than 20 is denoted as A) | A (a compound having 10 or more and less than 20 is denoted as A) |
| CCO[C@@H]1C[C@H]2C(=O)NC3(CC(F)(F)C3)C(=O)N(C)[C@@H](C3CCCC3)C(=O)N3CCC[C@@H]3CC(=O)N(C)[C@@H](CC3CC3)C(=O)N[C@@H]([C@@H](C)CC)C(=O)N(C)CC(=O)N(C)[C@H]3C/C=C\CCN(C3=O)[C@@H](Cc3ccc(C(F)(F)F)cc3)C(=O)N(C)CC(=O)N[C@@H](CCc3cc(F)c(C(F)(F)F)c(F)c3)C(=O)N2C1 [PP1615] | B (a compound having 3 or more and less than 10 is denoted as B) | B (a compound having 3 or more and less than 10 is denoted as B) |
| CCO[C@@H]1C[C@H]2C(=O)NC3(CCC3)C(=O)N(C)[C@@H](C3CCCC3)C(=O)N3CCC[C@@H]3CC(=O)N(C)[C@@H](CC3CC3)C(=O)N[C@@H]([C@@H](C)CC)C(=O)N(C)CC(=O)N(C)[C@H]3C/C=C\CCN(C3=O)[C@@H](Cc3ccc(C(F)(F)F)cc3)C(=O)N(C)CC(=O)N[C@@H](CCc3ccc(C(F)(F)F)c(OC)c3)C(=O)N2C1 [PP1616] | B (a compound having 3 or more and less than 10 is denoted as B) | B (a compound having 3 or more and less than 10 is denoted as B) |
| CCO[C@@H]1C[C@H]2C(=O)NC3(CC(C)(C)C3)C(=O)N(C)[C@@H](C3CCCC3)C(=O)N3CCC[C@@H]3CC(=O)N(C)[C@@H](CC)C(=O)N[C@@H]([C@@H](C)CC)C(=O)N(C)CC(=O)N(C)[C@H]3C/C=C\CCN(C3=O)[C@@H](CC3CCCCC3)C(=O)N(C)CC(=O)N[C@@H](CCc3cc(F)c(C(F)(F)F)c(F)c3)C(=O)N2C1 [PP1620] | B (a compound having 3 or more and less than 10 is denoted as B) | B (a compound having 3 or more and less than 10 is denoted as B) |
| CCO[C@@H]1C[C@H]2C(=O)NC3(CC(C)(C)C3)C(=O)N(C)[C@@H](C3CCCC3)C(=O)N(C)[C@H](CC)CC(=O)N(C)[C@@H](CC)C(=O)N[C@@H]([C@@H](C)CC)C(=O)N(C)CC(=O)N(C)[C@H]3C/C=C\CCN(C3=O)[C@@H](Cc3ccc(C(F)(F)F)cc3)C(=O)N(C)CC(=O)N[C@@H](CCc3cc(F)c(C(F)(F)F)c(F)c3)C(=O)N2C1 [PP1623] | A (a compound having 10 or more and less than 20 is denoted as A) | A (a compound having 10 or more and less than 20 is denoted as A) |
| CCO[C@@H]1C[C@H]2C(=O)NC3(CCC3)C(=O)N(C)[C@@H](C(CC)CC)C(=O)N(C)[C@H](CC)CC(=O)N(C)[C@@H](CC)C(=O)N[C@@H]([C@@H](C)CC)C(=O)N(C)CC(=O)N(C)[C@H]3C/C=C\CCN(C3=O)[C@@H](Cc3ccc(C(F)(F)F)cc3)C(=O)N(C)CC(=O)N[C@@H](CCc3cc(F)c(C(F)(F)F)c(F)c3)C(=O)N2C1 [PP1624] | A (a compound having 10 or more and less than 20 is denoted as A) | A (a compound having 10 or more and less than 20 is denoted as A) |
| CCO[C@@H]1C[C@H]2C(=O)NC3(CCC3)C(=O)N(C)[C@@H](C3CCCC3)C(=O)N(C)[C@H](CC)CC(=O)N(C)[C@@H](CC)C(=O)N[C@@H]([C@@H](C)CC)C(=O)N(C)CC(=O)N(C)[C@H]3C/C=C\CCN(C3=O)[C@@H](Cc3ccc(C(F)(F)F)cc3)C(=O)N(C)CC(=O)N[C@@H](CCc3cc(F)c(C(F)(F)F)c(F)c3)C(=O)N2C1 [PP1625] | B (a compound having 3 or more and less than 10 is denoted as B) | B (a compound having 3 or more and less than 10 is denoted as B) |
| CCO[C@@H]1C[C@H]2C(=O)NC3(CC(F)(F)C3)C(=O)N(C)[C@@H](C(CC)CC)C(=O)N(C)[C@H](CC)CC(=O)N(C)[C@@H](CC)C(=O)N[C@@H]([C@@H](C)CC)C(=O)N(C)CC(=O)N(C)[C@H]3C/C=C\CCN(C3=O)[C@@H](Cc3ccc(C(F)(F)F)cc3)C(=O)N(C)CC(=O)N[C@@H](CCc3cc(F)c(C(F)(F)F)c(F)c3)C(=O)N2C1 [PP1626] | A (a compound having 10 or more and less than 20 is denoted as A) | A (a compound having 10 or more and less than 20 is denoted as A) |
